Like-named read-outs stand apart in the source and are kept apart here.
Tests used:
plaque psoriasis [1] = system: plaque psoriasis
Excerpt: In another example, a person with plaque psoriasis on the extensor surface of their right knee for over 15 years was started on magnesium treatment. Prior treatment with topical hydrocortisone was stopped two weeks prior. Applications using Johnson+Johnson Large Sterile Waterproof Pads with QUILTVENT™ Technology. 1.8 cc solution of 20% magnesium sulfate solution (APP Fresenius Kabi Lake Zurich, Ill. NDC63323-064-10, 50% solution diluted with sterile water) was applied every third day for eight hour durations. […] After the 10 applications of the 20% magnesium sulfate solution, the strength of the solution was increased to 40% for the next ten applications and to 50% for the following 10 applications.
A trial using a 50% solution of magnesium chloride was made by dissolving the magnesium flakes with distilled water (Hinkley Springs) and applied to the Johnson+Johnson Large Sterile Waterproof Pads with QUILTVENT™. Applications were initially for eight hours every third day. […] Following the twentieth application the applications were increased to twelve hour duration with frequency increased to every other day. […] Applications were stopped to determine if total remission been achieved. […] Treatment was continued for three additional treatments.

[2] = system: recurrent plaque psoriasis
adhesive capsulitis [3] = conditions: for pain with active range of motion of the shoulder: after 16 hours of continued use
Description: A second attempt using transdermal magnesium treatment to affect the pain and inflammation associated with adhesive capsulitis was performed. A 1.3 cc of 50% magnesium sulfate solution (APP Fresenius Kabi Lake Zurich, Ill. NDC63323-064-10) was placed on the positive dispersal pad in an iontophoresis device (iontoPatch 80 manufactured by Travini Medical). The NaCl solution supplied with the device was placed on the negative patch. The positive patch was placed over the tender area on the lateral shoulder and kept in place for 10 hours. It was applied at 8:00 pm and removed the next morning before showering at 6:00 am. […] After showering a second replacement patch prepared in the same manner was placed at 6:15 am, 15 minutes after the first iontoPatch was removed.
The positive side of the patch now placed over a tender area on the anterior shoulder. The second patch application was kept in place for a total of 13.5 hours.

[4] = system: pain and stiffness of the lower back
Description: In an effort to determine if passive diffusion of magnesium ions applied over a larger surface area under a hydrocolloid dressing could affect the pain and stiffness of the lower back approximately 0.8 mL of 50% magnesium chloride solution was sprayed on a 4″×4″ hydrocolloid patch (DuoDERM™ Extra Thin CGF Dressing, by ConvaTec) and the moist patch was placed over the lumbar spine where the pain was now localized. This was kept in place during an 8 hour period. […] A third application of a pre-moistened Duoderm dressing, this time with approximately 0.5 mL of 40% magnesium chloride solution, sprayed onto the surface prior to application to the lumbar spine area and worn for 48 hours continuously.

chronic lower back pain = system: chronic lower back pain
Excerpt: In an effort to determine a threshold for therapeutic response the patient was started on gradually increasing concentrations of magnesium chloride placed on a 4 in.×4 in. hydrocolloid dressing (DupDERM™ Extra Thin CGF, by Convatec). Dosages were always approximately 1 cc sprayed onto surface of the dressing using a 20% solution of Magnesium Chloride (Mylan, NDC 674-134-50) diluted to strengths of 2%, 5%, 10% 15%, and undiluted 20%. Sterile water was used as the diluent (Hospira NDC 0409-4887-17). Dressings were kept in place for 8 hours. This method of application continued with daily graduation in the strength of solution applied. […] Using the same method of application, the dosages were increased to 30%, 40% and 50% solutions now made with magnesium flakes dissolved in distilled water.

plaque psoriasis [5] = system: plaque psoriasis; remark: listed apart in the source
Description: Johnson+Johnson Large Sterile Waterproof Pads with QUILTVENT™ Technology were obtained. These are similar to large waterproof bandaids measuring 2.875 inches×4 inches with a central pad that measured 1.85 inches×3 inches.

adhesive capsulitis [6] = conditions: 1.8 cc of 58% wt/vol on waterproof pad, normal skin, kept in place 24 hours
Excerpt: The same Johnson+Johnson waterproof pad was applied to normal skin over my right shoulder affected with an exacerbation of adhesive capsulitis.

[7] = system: sacroiliac (SI) joints pain and stiffness
Excerpt: In another example, a trial of transdermal magnesium ions delivered via iontophoresis in an effort to relieve pain, tenderness, and stiffness localized to sacroiliac (SI) joints. A patient with symptoms including exacerbation of chronic low back pain associated with pain, stiffness, and tenderness of both sacroiliac joints with pain radiating to the right iliac crest over a five week period. Symptoms were moderate to severe enough to make standing erect difficult at times and walking was slow and deliberate.
An iontophoresis pad with 120 mg of magnesium chloride diluted in 4 cc of distilled water was placed over the right sacroiliac joint for 80 minutes for delivery of 40 mA minutes with a delivery setting of 0.5 mA/minute at 8:00 pm.
A second identical dose was delivered with the same iontophoresis electrodes in place. […] Ten minutes following delivery of the first dose to the […] SI joint a second identical iontophoresis dose was delivered with the same electrodes in place.

[8] = 1.8 cc of 20% solution, 8 h every third day, following 7 applications
[9] = after increasing strength to 40% and 50% (10 applications each)
[10] = 50% solution, after 15 applications
[11] = 50% solution, after 20 applications plus ten 12 h applications every other day
[12] = 50% solution, two weeks after applications were stopped

`O=S(=O)([O-])[O-].[Mg+2]` [magnesium sulfate] was tested, and the itching (plaque psoriasis [1]; [8]) was “almost total relief”, the reduction in scaling (plaque psoriasis [1]; [8]) was 50% and the course of improvement (plaque psoriasis [1]; 20%, then 40% and 50% solution) was “plateaued following the first 10-12 applications”. The scaling between applications (plaque psoriasis [1]; [9]) was “persistent scaling”, the “thickness of persisting dermal hypertrophy” value (plaque psoriasis [1]; [9]) was “approximately 3 mm” and the “resolution of scaliness and erythema” value ([2]; 1 cc of 1% solution intra-dermal once daily for four days, not covered, day 14 following the injections) was 80%. For the same molecule, the “inflammatory process and erythema” value ([2]; 1 cc of 1% solution intra-dermal once daily for four days, not covered, over the next few days) was “reduction”, the “remission status of the recurrent 1 cm plaque” value ([2]; after 1% injections plus iontophoresis of 1.5 cc 50% solution on days 16 and 18, by day 28) was “complete remission” and the “effect on a small area of recurrent plaque psoriasis” value ([2]; intra-dermal injections of 1% solution) was “effective”. For the same molecule, the “improvement in pain with active range of motion of the shoulder” value (adhesive capsulitis [3]; 1.3 cc of 50% solution, iontophoresis, after 10 hours) was 40%, the “active range of motion, affected right versus unaffected left shoulder” value (adhesive capsulitis [3]; 50% solution, iontophoresis, after 16 hours) was “no difference” and the “pain with active range of motion of the shoulder” value (adhesive capsulitis [3]; 50% solution, iontophoresis) was “no pain”. The “pain with active range of motion of the shoulder” value (adhesive capsulitis [3]; 50% solution, iontophoresis, listed as magnesium) was “complete relief”, the “reduction in pain with active range of motion of the shoulder” value (adhesive capsulitis [3]; 50% solution, iontophoresis, patches worn for a total of 12 hours) was 80% and the “duration of the beneficial effect” value (adhesive capsulitis [3]; after two iontophoresis patches with 50% solution) was “no further treatment was required over the next 10 months”.

With `[Cl-].[Cl-].[Mg+2]` [magnesium chloride] the “fine scaliness and inflammation, early response” value (plaque psoriasis [1]; 50% solution, 8 h every third day, within days of starting) was “immediate improvement”, the dermal hypertrophy (plaque psoriasis [1]; [10]) was “improvement” and the fine scales (plaque psoriasis [1]; [10]) was “elimination”. The improvement in inflammation (plaque psoriasis [1]; [10]) was 90-95%, the dermal hypertrophy (plaque psoriasis [1]; [11]) was “resolved” and the fine scaliness (plaque psoriasis [1]; [11]) was “resolved”. For the same molecule, the “finding under double polarized light head set apparatus” value (plaque psoriasis [1]; [12]) was “small erythematous islands were visualized”, the skin appearance (plaque psoriasis [1]; [12]) was “appeared normal” and the “pain and stiffness in the lower back” value ([4]; 50% solution on hydrocolloid dressing for a total of 9.5 hours) was “complete relief”. The “skin at the application area after the first patch” value ([4]; 50% solution on hydrocolloid patch, after removal of the first patch) was “slightly hyperemic”, the “sensation on application of the second patch” value ([4]; 50% solution on hydrocolloid patch, second application to the same area) was “transient burning sensation” and the “improvement in pain and stiffness of the lower back” value ([4]; about 0.8 mL of 50% solution on 4x4 in. hydrocolloid patch, 8 hour period) was 80%. For the same molecule, the “duration of complete relief” value ([4]; after 9.5 hours of 50% solution on hydrocolloid dressing) was 48 h, the “severity of recurring discomfort and stiffness relative to the original pain and stiffness” value ([4]; on the third day after the 50% solution patches) was 20% and the “discomfort and stiffness of the lower back” value ([4]; third dressing, about 0.5 mL of 40% solution, after eight hours) was “Resolution”. For the same molecule, the “improvement in pain and stiffness” value (chronic lower back pain; 30%, 40% and 50% solutions on hydrocolloid dressing, 8 hours) was “incremental therapeutic benefit”, the “greatest benefit estimated by the patient” value (chronic lower back pain; 50% solution on hydrocolloid dressing, after the 8 hour application) was “over 70%” and the “improvement in pain or stiffness” value (chronic lower back pain; about 1 cc of 2% or 5% solution on hydrocolloid dressing, 8 hours) was “no therapeutic improvement”. For the same molecule, the “improvement in pain and stiffness” value (chronic lower back pain; about 1 cc of 10% solution on hydrocolloid dressing, after 8 hours) was 10-20%, the “improvement in pain and stiffness, estimate of the patient” value (chronic lower back pain; about 1 cc of 15% and 20% solution on hydrocolloid dressing, 8 hours) was 20-40% and the “skin finding over the previous psoriasis plaque” value (plaque psoriasis [5]; 58% wt/vol solution kept in place for 24 hour periods, resolved with days) was “small 2-4 mm painless flat scabs developed”. For the same molecule, the “time until erythema and scales of the plaque started to improve” value (plaque psoriasis [5]; 58% wt/vol solution on occlusive dressing, following the first application) was at most 24 h, the “remission status of the psoriasis plaque” value (plaque psoriasis [5]; 58% wt/vol solution, twelve applications, by the start of week four) was “complete remission” and the “duration of complete remission of the psoriatic lesion” value (plaque psoriasis [5]; after pads, prophylactic daily 50% wt/vol spray into the fourth month) was “continued into the twelfth month”. For the same molecule, the “pain associated with adhesive capsulitis” value (adhesive capsulitis [6]) was “no improvement”, the “improvement in pain and stiffness of the right SI joint” value ([7]; 120 mg in 4 cc water, iontophoresis 40 mA minutes, five hours after the first dose) was “approximately 50%” and the “duration of the improvement” value ([7]; after two iontophoresis doses on each SI joint) was “lasted throughout the next day”. For the same molecule, the “improvement in pain and stiffness of the right SI joint” value ([7]; two iontophoresis doses of 120 mg in 4 cc, five hours after completion) was 80% and the “reduction in pain and stiffness of the left SI joint” value ([7]; two iontophoresis doses of 120 mg in 4 cc, two hours after treatments ended) was about 90%.

Reference: patent US10980830B2, “Systems and methods for treating skin conditions with magnesium ion compositions” (priority 2017, dated 2021)
